Data as given in ChEMBL document CHEMBL3585344, “Thiazole-based aminopyrimidines and N-phenylpyrazolines as potent antimicrobial agents: synthesis and biological evaluation” (2014).
Converted amounts (≈) assume the structure as drawn.

What was measured:
Bacillus cereus [1] = experiment: Bactericidal activity against Bacillus cereus clinical isolate after 72 hrs by microdilution method; format: functional
Salmonella typhimurium [2] = experiment: Antibacterial activity against Salmonella typhimurium ATCC 13311 after 24 hrs by microdilution method; format: functional, Salmonella enterica subsp. enterica serovar Typhimurium; details: Salmonella enterica, ATCC 13311, 24 h
Aspergillus versicolor [3] = experiment: Fungicidal activity against Aspergillus versicolor ATCC 11730 after 72 hrs by microdilution method; format: functional
Penicillium ochrochloron [4] = experiment: Fungicidal activity against Penicillium ochrochloron ATCC 9112 after 72 hrs by microdilution method; format: functional
Aspergillus niger [5] = experiment: Antifungal activity against Aspergillus niger ATCC 6275 after 72 hrs by microdilution method; format: functional; details: ATCC 6275, 72 h
Trichoderma viride [6] = experiment: Fungicidal activity against Trichoderma viride IAM 5061 after 72 hrs by microdilution method; format: functional
Aspergillus niger [7] = experiment: Fungicidal activity against Aspergillus niger ATCC 6275 after 72 hrs by microdilution method; format: functional
Enterococcus faecalis [8] = experiment: Antibacterial activity against Enterococcus faecalis ATCC 7080 isolated from human after 24 hrs by microdilution method; format: functional; details: ATCC 7080, 24 h
Bacillus cereus [9] = experiment: Antibacterial activity against Bacillus cereus clinical isolate after 24 hrs by microdilution method; format: functional
Salmonella typhimurium [10] = experiment: Bactericidal activity against Salmonella typhimurium ATCC 13311 after 72 hrs by microdilution method; format: functional, Salmonella enterica subsp. enterica serovar Typhimurium
Micrococcus flavus [11] = experiment: Antibacterial activity against Micrococcus flavus ATCC 10240 after 24 hrs by microdilution method; format: functional; details: ATCC 10240, 24 h
Penicillium ochrochloron [12] = experiment: Antifungal activity against Penicillium ochrochloron ATCC 9112 after 72 hrs by microdilution method; format: functional; details: ATCC 9112, 72 h
Escherichia coli [13] = experiment: Antibacterial activity against Escherichia coli ATCC 35210 after 24 hrs by microdilution method; format: functional; details: ATCC 35210, 24 h
Escherichia coli [14] = experiment: Bactericidal activity against Escherichia coli ATCC 35210 after 72 hrs by microdilution method; format: functional
Pseudomonas aeruginosa [15] = experiment: Antibacterial activity against Pseudomonas aeruginosa ATCC 27853 after 24 hrs by microdilution method; format: functional; details: ATCC 27853, 24 h
Aspergillus fumigatus [16] = experiment: Fungicidal activity against Aspergillus fumigatus isolated from human after 72 hrs by microdilution method; format: functional
Aspergillus flavus [17] = experiment: Fungicidal activity against Aspergillus flavus ATCC 9643 after 72 hrs by microdilution method; format: functional
Staphylococcus aureus [18] = experiment: Bactericidal activity against Staphylococcus aureus ATCC 6538 after 72 hrs by microdilution method; format: functional
Aspergillus ochraceus [19] = experiment: Antifungal activity against Aspergillus ochraceus ATCC 12066 after 72 hrs by microdilution method; format: functional; details: ATCC 12066, 72 h
Trichoderma viride [20] = experiment: Antifungal activity against Trichoderma viride IAM 5061 after 72 hrs by microdilution method; format: functional; details: IAM 5061, 72 h
Talaromyces funiculosus [21] = experiment: Antifungal activity against Penicillium funiculosum ATCC 36839 after 72 hrs by microdilution method; format: functional; details: ATCC 36839, 72 h
Aspergillus ochraceus [22] = experiment: Fungicidal activity against Aspergillus ochraceus ATCC 12066 after 72 hrs by microdilution method; format: functional
Aspergillus flavus [23] = experiment: Antifungal activity against Aspergillus flavus ATCC 9643 after 72 hrs by microdilution method; format: functional; details: ATCC 9643, 72 h
Pseudomonas aeruginosa [24] = experiment: Bactericidal activity against Pseudomonas aeruginosa ATCC 27853 after 72 hrs by microdilution method; format: functional
Micrococcus flavus [25] = experiment: Bactericidal activity against Micrococcus flavus ATCC 10240 after 72 hrs by microdilution method; format: functional
Staphylococcus aureus [26] = experiment: Antibacterial activity against Staphylococcus aureus ATCC 6538 after 24 hrs by microdilution method; format: functional; details: ATCC 6538, 24 h
Talaromyces funiculosus [27] = experiment: Fungicidal activity against Penicillium funiculosum ATCC 36839 after 72 hrs by microdilution method; format: functional
Aspergillus versicolor [28] = experiment: Antifungal activity against Aspergillus versicolor ATCC 11730 after 72 hrs by microdilution method; format: functional; details: ATCC 11730, 72 h
Enterococcus faecalis [29] = experiment: Bactericidal activity against Enterococcus faecalis ATCC 7080 isolated from human after 72 hrs by microdilution method; format: functional
Listeria monocytogenes [30] = experiment: Antibacterial activity against Listeria monocytogenes NCTC 7973 after 24 hrs by microdilution method; format: functional; details: NCTC 7973, 24 h
Aspergillus fumigatus [31] = experiment: Antifungal activity against Aspergillus fumigatus isolated from human after 72 hrs by microdilution method; format: functional
Listeria monocytogenes [32] = experiment: Bactericidal activity against Listeria monocytogenes NCTC 7973 after 72 hrs by microdilution method; format: functional

Structure (SMILES)	MBC99.5 (Bacillus cereus [1])	MIC (Salmonella typhimurium [2])	MFC99.5 (Aspergillus versicolor [3])	MFC99.5 (Penicillium ochrochloron [4])	MIC (Aspergillus niger [5])	MFC99.5 (Trichoderma viride [6])	MFC99.5 (Aspergillus niger [7])	MIC (Enterococcus faecalis [8])	MIC (Bacillus cereus [9])	MBC99.5 (Salmonella typhimurium [10])	MIC (Micrococcus flavus [11])	MIC (Penicillium ochrochloron [12])	MIC (Escherichia coli [13])	MBC99.5 (Escherichia coli [14])	MIC (Pseudomonas aeruginosa [15])	MFC99.5 (Aspergillus fumigatus [16])	MFC99.5 (Aspergillus flavus [17])	MBC99.5 (Staphylococcus aureus [18])	MIC (Aspergillus ochraceus [19])	MIC (Trichoderma viride [20])	also measured
CNc1nc(C)c(C2=NN(c3ccccc3)C(c3ccc(F)cc3)C2)s1 (stereo unspecified)	27.3 ×10⁻² umol/ml	54.6 µM (≈ 20 µg/mL)	21.4 ×10⁻² umol/ml	47.8 ×10⁻² umol/ml	478 µM (≈ 175 µg/mL)	47.8 ×10⁻² umol/ml	95.5 ×10⁻² umol/ml	54.6 µM (≈ 20 µg/mL)	54.6 µM (≈ 20 µg/mL)	27.3 ×10⁻² umol/ml	54.6 µM (≈ 20 µg/mL)	214 µM (≈ 78.4 µg/mL)	54.6 µM (≈ 20 µg/mL)	47.8 ×10⁻² umol/ml	27.3 µM (≈ 10 µg/mL)	10.92 ×10⁻² umol/ml	47.8 ×10⁻² umol/ml	27.3 ×10⁻² umol/ml	54.6 µM (≈ 20 µg/mL)	109 µM (≈ 40 µg/mL)	MIC (Talaromyces funiculosus [21]): 109 µM (≈ 40 µg/mL); MFC99.5 (Aspergillus ochraceus [22]): 27.3 ×10⁻² umol/ml; MIC (Aspergillus flavus [23]): 54.6 µM (≈ 20 µg/mL); MBC99.5 (Pseudomonas aeruginosa [24]): 27.3 ×10⁻² umol/ml; MBC99.5 (Micrococcus flavus [25]): 47.8 ×10⁻² umol/ml; MIC (Staphylococcus aureus [26]): 27.3 µM (≈ 10 µg/mL); MFC99.5 (Talaromyces funiculosus [27]): 27.3 ×10⁻² umol/ml; MIC (Aspergillus versicolor [28]): 54.6 µM (≈ 20 µg/mL); MBC99.5 (Enterococcus faecalis [29]): 27.3 ×10⁻² umol/ml; MIC (Listeria monocytogenes [30]): 54.6 µM (≈ 20 µg/mL); MIC (Aspergillus fumigatus [31]): 54.6 µM (≈ 20 µg/mL); MBC99.5 (Listeria monocytogenes [32]): 95.5 ×10⁻² umol/ml
CNc1nc(C)c(C2=NN(c3ccccc3)C(c3ccc(C)cc3)C2)s1 (stereo unspecified)	27.6 ×10⁻² umol/ml	110 µM (≈ 40 µg/mL)	27.6 ×10⁻² umol/ml	44.6 ×10⁻² umol/ml	442 µM (≈ 160 µg/mL)	11.04 ×10⁻² umol/ml	58.6 ×10⁻² umol/ml	442 µM (≈ 160 µg/mL)	55.2 µM (≈ 20 µg/mL)	27.6 ×10⁻² umol/ml	276 µM (≈ 100 µg/mL)	276 µM (≈ 100 µg/mL)	276 µM (≈ 100 µg/mL)	58.6 ×10⁻² umol/ml	276 µM (≈ 100 µg/mL)	44.16 ×10⁻² umol/ml	27.6 ×10⁻² umol/ml	27.6 ×10⁻² umol/ml	96 µM (≈ 34.8 µg/mL)	55.2 µM (≈ 20 µg/mL)	MIC (Talaromyces funiculosus [21]): 276 µM (≈ 100 µg/mL); MFC99.5 (Aspergillus ochraceus [22]): 11.04 ×10⁻² umol/ml; MIC (Aspergillus flavus [23]): 110 µM (≈ 40 µg/mL); MBC99.5 (Pseudomonas aeruginosa [24]): 33.12 ×10⁻² umol/ml; MBC99.5 (Micrococcus flavus [25]): 58.6 ×10⁻² umol/ml; MIC (Staphylococcus aureus [26]): 110 µM (≈ 40 µg/mL); MFC99.5 (Talaromyces funiculosus [27]): 44.16 ×10⁻² umol/ml; MIC (Aspergillus versicolor [28]): 55.2 µM (≈ 20 µg/mL); MBC99.5 (Enterococcus faecalis [29]): 58.64 ×10⁻² umol/ml; MIC (Listeria monocytogenes [30]): 96 µM (≈ 34.8 µg/mL); MIC (Aspergillus fumigatus [31]): 276 µM (≈ 100 µg/mL); MBC99.5 (Listeria monocytogenes [32]): 11.04 ×10⁻² umol/ml
CCNc1nc(C)c(C2=NN(c3ccccc3)C(c3ccccc3)C2)s1 (stereo unspecified)	27.6 ×10⁻² umol/ml	276 µM (≈ 100 µg/mL)	27.6 ×10⁻² umol/ml	44.16 ×10⁻² umol/ml	309 µM (≈ 112 µg/mL)	30.9 ×10⁻² umol/ml	44.16 ×10⁻² umol/ml	110 µM (≈ 40 µg/mL)	55.2 µM (≈ 20 µg/mL)	30.9 ×10⁻² umol/ml	110 µM (≈ 40 µg/mL)	309 µM (≈ 112 µg/mL)	276 µM (≈ 100 µg/mL)	44.16 ×10⁻² umol/ml	276 µM (≈ 100 µg/mL)	44.16 ×10⁻² umol/ml	27.6 ×10⁻² umol/ml	27.6 ×10⁻² umol/ml	27.6 µM (≈ 10 µg/mL)	276 µM (≈ 100 µg/mL)	MIC (Talaromyces funiculosus [21]): 110 µM (≈ 40 µg/mL); MFC99.5 (Aspergillus ochraceus [22]): 11.04 ×10⁻² umol/ml; MIC (Aspergillus flavus [23]): 110 µM (≈ 40 µg/mL); MBC99.5 (Pseudomonas aeruginosa [24]): 44.16 ×10⁻² umol/ml; MBC99.5 (Micrococcus flavus [25]): 44.16 ×10⁻² umol/ml; MIC (Staphylococcus aureus [26]): 27.6 µM (≈ 10 µg/mL); MFC99.5 (Talaromyces funiculosus [27]): 30.9 ×10⁻² umol/ml; MIC (Aspergillus versicolor [28]): 55.2 µM (≈ 20 µg/mL); MBC99.5 (Enterococcus faecalis [29]): 27.6 ×10⁻² umol/ml; MIC (Listeria monocytogenes [30]): 55.2 µM (≈ 20 µg/mL); MIC (Aspergillus fumigatus [31]): 110 µM (≈ 40 µg/mL); MBC99.5 (Listeria monocytogenes [32]): 11.04 ×10⁻² umol/ml
